From patent US10759839B2, “Cell-penetrating peptide” (NEOREGEN BIOTECH, priority 2016, dated 2020)
Entries after “also recorded” stand apart in the source; their conditions may differ. Where no end group is shown, it is not given here.

What was measured:
NIH3T3 cell line = assay: Cell penetration efficiency of FITC-labelled p53C, Tat-Ara-19 and ICT-53 (FIG. 7); assay type: cell-based; details: 1 μM, 1 hour
Procedure: FIG. 7 is a graph showing results of comparing the cell penetration efficiencies of p53C, Tat-ara-19 and ICT-53 peptides.
A p53C peptide having 22 amino acid sequences and Tat-Ara-19 peptide, as well as the ICT-53 peptide, in which the p53C peptide is fused to the Tat-Ara-19 peptide, were synthesized, then fluorescein isothiocyanate (FITC, fluorescent material) was adhered to the C-terminus thereof so as to fluoresce. These peptides were used to examine the cell penetration efficiency for 1 hour at a concentration of 1 μM in a NIH3T3 cell line. […] In this experiment, the penetration efficiency in a situation including serum was also examined.

U2OS cancer cell line = assay: Anti-cancer effect of purified ICT-53 peptide (FIGS. 9 and 10); assay type: cell-based; details: for each concentration
[1] = test system: mesenchymal stem cell (MSC); assay: Cell penetration of FITC-labelled peptide by concentration, FACS fluorescence intensity (FIG. 1); assay type: cell-based, human; details: 1 hour
From the text: FIG. 1 is a graph showing that a cell membrane penetration efficiency of Ara-27 cell-penetrating peptide is increased in proportion to a concentration in mesenchymal stem cell (MSC) derived from a human body. In the graph, a Y axis represents a fluorescence intensity, which is an index indicating an amount of introduced peptides per unit cell.
(§1) In order to confirm the cell penetration efficiency of each cell-penetrating peptide, fluorescein isothiocyanate (FITC, fluorescent material), which fluoresces each peptide, was adhered to each peptide, then penetration efficiencies thereof were examined.
When measuring the cell penetration efficiency, in order to remove each cell-penetrating peptide which may be adhered to the cell membrane surface, a Heparin & Trypsin washing method used in the Kaplan group was applied thereto [Kaplan I M, Wadia J S, Dowdy S F (2005) Cationic TAT peptide transduction domain enters cells by macropinocytosis. J Controlled release 102: 247-253). […]
In the mesenchymal stem cell (MSC), an amount of the cell-penetrating peptide (Ara-27) including an amino acid sequence of SEQ ID NO: 2 into the cell was determined for each concentration.

[2] = test system: Human mesenchymal stem cells (human MSCs); assay: Confocal microscopy of intracellular localisation with membrane marker FM-64 (FIG. 3); assay type: cell-based
From the text: Further, in order to determine whether the Ara-27 cell-penetrating peptide is actually present in intracellular nuclei or cytoplasm, the Ara-27 peptide was fluorescently treated, and then analyzed using a confocal microscope. Human mesenchymal stem cells (human MSCs) were placed in a DMEM cell culture medium containing 10% FBS in a 6-well plate. […] Next, a membrane marker (FM-64) was used to examine whether the peptides are actually present inside the cell membrane. The cells were removed with trypsin to allow reagents to be inserted into the cell membrane, and the reagents were treated to perform the analysis. At this time, it can be confirmed that most of peptides were present in cytoplasmic parts inside the cell membranes, and some of the peptides were also present in the nucleus (FIG. 3).

NIH3T3 fibroblast = assay: Cell penetration efficiency of FITC-peptides, heparin and trypsin washing, FACS (FIG. 6); assay type: cell-based; details: 1 μM
From the text: FIG. 6 is a graph showing results of comparing the cell penetration efficiencies of Ara-27, ara-20, R8-Ara-19 and Ara-8 cell-penetrating peptides in a NIH3T3 fibroblast.
as §1
When measuring the cell penetration efficiency, in order to remove each cell-penetrating peptide which may be adhered to the cell membrane surface, a Heparin & Trypsin washing method used in the Kaplan group was applied thereto [Kaplan I M, Wadia J S, Dowdy S F (2005) Cationic TAT peptide transduction domain enters cells by macropinocytosis. J Controlled release 102: 247-253). In summary, in the experiments to be described below, each cell-penetrating peptide was put into a cell growth medium at a concentration of 1 μM, incubated for 30 minutes, and then the cells were washed 3 times with Heparin, followed by separating the cells with trypsin to perform a FACS analysis.
Next, the cell penetration efficiencies of Ara-27 and the cell-penetrating peptides including amino acid sequences of SEQ ID NO: 1 (Ara-20), SEQ ID NO: 3 (R8-Ara-19), and SEQ ID NO: 11 (Ara-8) of the examples in a NIH3T3 fibroblast were compared.

human-derived MSCs = assay: Fluorescence microscopy of peptide entry into cells (FIG. 2); assay type: cell-based; details: 1 μM, 30 minutes, medium containing 10% serum, heparin washing, trypsin
Procedure: An experiment was conducted in a medium containing 10% serum, and after treatment for 30 minutes at a concentration of 1 μM, fluorescent peptides adhered to the cell surface were removed using a heparin washing method, and then the cell was separated therefrom by treatment with trypsin. FIG. 2 is photographs of cells taken by the fluorescence microscope after separation.

Substance: p53C: p53C peptide (SEQ ID NO: 5), peptide of a C-terminal region of a p53 protein, 22 amino acids (GSRAHSSHLKSKKGQSTSRHKK; p53C) [reference compound]
- cell penetration efficiency (in words) (NIH3T3 cell line): did not penetrate into the cell

Substance: RKKRRQRRCFRCRQAGHWISDCRLKSKGSRAHSSHLKSKKGQSTSRHKK (cysteines drawn unpaired) [ICT-53]
- anti-cancer effect, dependence on concentration (U2OS cancer cell line): in proportion to the concentration
- cell penetration efficiency (in words) (NIH3T3 cell line): high efficiency

Substance: Tat-Ara-19: cell-penetrating peptide including an amino acid sequence of SEQ ID NO: 4 (RKKRRQRRCFRCRQAGHWISDCRLKSK; Tat-Ara-19)
- cell penetration efficiency (in words) (NIH3T3 cell line): high efficiency

Substance: Ara-27: cell-penetrating peptide including an amino acid sequence of SEQ ID NO: 2, Arabidopsis thaliana-derived (RNQRKTVRCFRCRQAGHWISDCRLKSK; Ara-27)
- amount of the peptide introduced per unit cell (fluorescence intensity) ([1]; for each concentration): increased in proportion to the concentration
- location of the peptide in the cell ([2]; 2 μM, DMEM containing 10% FBS): most of the Ara-27 peptides were present in the cytoplasm
- persistence of the peptide in the cell ([2]; 5 μM, 18 hours after penetration): stably exist therein
- location of the peptide in the cell ([2]; 5 μM, 18 hours after penetration, membrane marker): not only in the cytoplasm but also in the nucleus
- efficiency of penetrance into the cell (NIH3T3 fibroblast; within 30 minutes, environment including serum): ≥ 90%
- peptides that entered the cells, seen by fluorescence microscope (human-derived MSCs): found across all the cells; also recorded: high fluorescence intensity

Substance: Tat-PTD: Tat-PTD (SEQ ID NO: 12), a well-known cell-penetrating peptide, used as control group (RKKRRQRR; Tat-PTD) [reference compound]
- amount of the peptide introduced per unit cell (fluorescence intensity) ([1]; even at 5 μM): remarkably low
- cell penetration efficiency (in words) (NIH3T3 fibroblast; NIH3T3 fibroblast, 30 minutes): very low level
- peptides that entered the cells, seen by fluorescence microscope (human-derived MSCs): very rarely found
